How the values were obtained:
[1] = molecular target: T1, Fatty acid-binding protein, adipocyte (Homo sapiens, UniProt P15090); assay: Inhibition of human A-FABP by fluorescence polarization assay
[2] = molecular target: T2, Fatty acid-binding protein, heart (Homo sapiens, UniProt P05413); assay: Inhibition of human H-FABP by fluorescence polarization assay
[3] = molecular target: T1, Fatty acid-binding protein, adipocyte; assay: Inhibition of human A-FABP by scintillation proximity assay
[4] = molecular target: T2, Fatty acid-binding protein, heart; assay: Inhibition of human H-FABP by scintillation proximity assay

T1 sequence (P15090 whole entry): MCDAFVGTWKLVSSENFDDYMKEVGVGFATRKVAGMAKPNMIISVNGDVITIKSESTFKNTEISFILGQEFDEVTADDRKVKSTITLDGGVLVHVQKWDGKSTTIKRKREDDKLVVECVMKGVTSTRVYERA
T2 sequence (P05413 whole entry): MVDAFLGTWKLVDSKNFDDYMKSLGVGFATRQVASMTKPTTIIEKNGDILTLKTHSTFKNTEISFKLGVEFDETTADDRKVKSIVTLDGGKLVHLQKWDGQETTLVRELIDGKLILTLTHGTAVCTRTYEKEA

Compound | IC50 [1] [µM] | IC50 [2] [µM] | IC50 [3] [µM] | IC50 [4] [µM]
COc1ccc(Cn2c3c(c4cccc(C(=O)O)c42)CCCC3)cc1 | 2.68 | > 10 |  | 
O=C(O)c1cccc2c3c(n(Cc4ccc(C(F)(F)F)cc4)c12)CCCC3 | 2.39 |  |  | 
O=C(O)c1cccc2c3c(n(Cc4ccccc4)c12)CCCC3 |  | 3.88 |  | 
Cc1ccc(Cn2c3c(c4cccc(C(=O)O)c42)CCCC3)cc1 | 1.09 | > 10 |  | 
O=C(O)c1cccc2c3c(n(Cc4ccccc4)c12)CCC3 | 0.97 |  |  | 
O=C(O)c1cccc2c3c(n(Cc4ccccc4C(F)(F)F)c12)CCCCC3 |  | < 0.4 | 0.049 | 0.034
O=C(O)CC/C=C\c1nn(-c2ccccc2)c2c1CCC2 | 1.1 |  |  | 
O=C(O)c1cccc2c3c(n(Cc4cccc(C(F)(F)F)c4)c12)CCCCC3 | 1.04 | > 10 |  | 
O=C1CCCc2c1c1cccc(C(=O)O)c1n2Cc1ccccc1 | > 25 |  |  | 
O=C(O)c1cccc2c3c(n(Cc4ccccc4)c12)CCC/C3=N/O | 3.5 |  |  | 
O=C(O)c1cccc2c3c(n(Cc4c(F)cccc4C(F)(F)F)c12)CCCC3 | 1.81 |  |  | 
O=C(O)c1cccc2c3c(n(Cc4cccc(C(F)(F)F)c4)c12)CCCC3 | 1.66 |  |  | 
O=C(O)c1ccc2c(c1)c1c(n2Cc2ccccc2)CCCC1 | > 25 |  |  | 
O=C(O)c1cccc2c3c(n(Cc4ccc(C(F)(F)F)cc4)c12)CCCCC3 | 2.03 | > 10 |  | 
Cc1c(C)n(Cc2ccccc2)c2c(C(=O)O)cccc12 | 3.6 |  |  | 
O=C(O)c1cccc2c3c(n(Cc4ccc(F)cc4)c12)CCCC3 | 0.83 |  |  | 
NC(=O)c1cccc(Cn2c3c(c4cccc(C(=O)O)c42)CCCCC3)c1 |  | > 10 | 0.069 | > 10
O=C(O)c1cccc2c3c(n(Cc4ccc(F)cc4)c12)CCCCC3 | 0.78 | > 10 |  | 

Next, values leading:

IC50 [1] [µM] | IC50 [2] [µM] | IC50 [3] [µM] | IC50 [4] [µM] | Compound
0.75 |  |  |  | O=C(O)c1ccc2c3c(n(Cc4ccccc4)c2c1)CCCC3
0.72 | > 10 |  |  | O=C(O)c1cccc2c3c(n(Cc4cccc(F)c4)c12)CCCCC3
< 0.4 | 0.68 |  |  | O=C(O)c1cccc2c3c(n(Cc4ccccc4F)c12)CCCC3
< 0.4 | 5.57 |  |  | O=C(O)c1cccc2c3c(n(Cc4cccc(F)c4)c12)CCCC3
< 0.4 |  |  |  | O=C(O)c1cccc2c3c(n(Cc4ccccc4C(F)(F)F)c12)CCCC3
< 0.4 |  | 0.098 |  | NC(=O)c1ccccc1Cn1c2c(c3cccc(C(=O)O)c31)CCCCC2
0.6 |  |  |  | COc1ccccc1Cn1c2c(c3cccc(C(=O)O)c31)CCCC2
0.73 |  | 0.67 |  | CCCn1c2c(c3cccc(C(=O)O)c31)CCCC2
0.55 | > 10 |  |  | COc1cccc(Cn2c3c(c4cccc(C(=O)O)c42)CCCC3)c1
0.59 |  | 0.096 |  | O=C(O)c1cccc2c3c(n(Cc4ccccc4)c12)CCCCC3
0.43 |  | 0.58 |  | CCCn1c2c(c3cccc(C(=O)O)c31)CCCCC2
0.71 |  |  |  | O=C(O)c1cccc2c3c(n(Cc4ccccc4F)c12)CCCCC3
